Measured values from patent US20110301079A1, “NEUROMEDIN U RECEPTOR AGONISTS AND USES THEREOF” (Instituto di Ricerche di Biologia Molecolare P. Angeletti …, priority 2007, published 2011).
Residues, ends and D or L forms follow the SMILES beside them. *: point of attachment. X1 = CC(C)CCC[C@@H](C)[C@H]1CC[C@H]2[C@@H]3CC=C4C[C@@H](OC(=O)C*)CC[C@]4(C)[C@H]3CC[C@]12C

How the values were obtained:
[1] = biological target: T1, human NMUR2 (Homo sapiens, UniProt Q9GZQ4); experiment: FLIPR calcium mobilization assay, human NMUR2-expressing cell line; type: cell-based; conditions: for % Activity: human NMUR2, maximum response at 1 μM compared to the human NMU-25 response at the same concentration
T1 construct: expressed in transfected cells; host or cells: FLP-In CHO cells and HEK-293 FLP-In cells (pcDNA5)
T1 sequence (Q9GZQ4 whole entry): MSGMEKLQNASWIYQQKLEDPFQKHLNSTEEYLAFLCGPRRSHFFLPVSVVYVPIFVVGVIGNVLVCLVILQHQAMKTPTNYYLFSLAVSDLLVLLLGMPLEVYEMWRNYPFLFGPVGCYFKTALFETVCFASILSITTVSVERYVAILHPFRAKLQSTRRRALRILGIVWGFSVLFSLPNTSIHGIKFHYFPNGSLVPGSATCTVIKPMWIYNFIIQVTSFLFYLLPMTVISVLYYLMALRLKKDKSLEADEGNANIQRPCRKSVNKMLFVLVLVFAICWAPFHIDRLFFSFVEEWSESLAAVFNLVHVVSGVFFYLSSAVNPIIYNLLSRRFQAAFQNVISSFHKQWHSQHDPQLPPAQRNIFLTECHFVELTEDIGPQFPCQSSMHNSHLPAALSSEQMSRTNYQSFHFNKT
Description: (§1) Human, mouse or rat cDNAs encoding NMUR1 or NMUR2 (as described in Howard et al. Nature 406: 70-74 (2000) were subcloned in pcDNA5 (Invitrogen) and transfected into FLP-In CHO cells and HEK-293 FLP-In cells purchased from Invitrogen (Carlsbad, Calif.) using lipofectamine (Invitrogen). The Flp-In system allows integration and expression of a particular gene of interest at a specific genomic location utilizing the Flp recombinase from yeast. The transfected cells were selected by growth in medium containing 200 μg/mL hygromycin (Invitrogen). Populations were frozen at early passage numbers, and these stocks were used for further studies. Stable clones that expressed the mRNAs were identified functionally by FLIPR as well as by RT-PCR. […] Two different rodent NMUR1 cell lines were thus generated: one with the codon as predicted from the genomic databases and another cell line with an engineered methionine (ATG) as the start codon. The dog NMU receptors were also cloned from intestine RNA (NMUR1) and brain (NMUR2) and stable cell lines were generated as used for the human and rodent cell lines. […] To ensure high levels of expression in a heterologous system, a dog NMUR1 cell line was generated that contains an ATG as the start codon. Additionally, stable cell lines expressing the human receptors were generated in HEK-293/aeq 17 cells which stably express the aequorin gene under the CMV promoter. The human NMUR2 cDNA was cloned into pcDNA3.1 and human NMUR1 was subcloned into pIRES-puro (Clontech, Mountain View, Calif.), after transfection cells were selected in media containing G418 and either hygromycin (NMUR2) or puromycin (NMUR1).
(§2) The NMU receptors signal primarily through Gαq/11 proteins; therefore calcium mobilization assays can be utilized for functional activity.
(§3) Stable cell lines expressing human and or rodent NMUR1 or human NMUR2 receptors are plated at a density of 12,000 cells per well overnight on poly-lysine coated 384-well black-walled plates. The following day, the media is removed from the plates and the cells were subsequently loaded with Fluo-3 (Molecular Probes), a calcium sensitive dye, diluted in FLIPR buffer (1× Hank's buffered saline containing 20 mM HEPES, 0.1% BSA, 2.5 mM probenecid (Sigma) and 1.6 mM TR40). All reagents are from Invitrogen unless otherwise noted. Peptide stocks are resuspended in DMSO at a stock concentration of 2 mM and diluted in FLIPR buffer on the day of the experiment to a 4 μM working stock solution.
(§4) After a 90 minute incubation at room-temperature, cell plates are loaded onto a FLIPR (Molecular Devices) to monitor cellular fluorescence (excitation=488 nm; emission=540 nm) before and after compound/peptide addition. Eight to twelve point dose responses are tested on NMUR-expressing cell lines using FLIPR with 1 μM peptide as the highest dose. The response after peptide addition is taken as the maximum fluorescence units minus the fluorescence immediately prior to stimulation for each well. EC50 values are calculated using GraphPad Prism (San Diego, Calif.) software.
(§5) Percent activity refers to the maximum response at 1 μM compared to the human NMU-25 response at the same concentration.

[2] = biological target: T2, human NMUR1 (Homo sapiens, UniProt Q9HB89); experiment: FLIPR calcium mobilization assay, human NMUR1-expressing cell line; type: cell-based; conditions: for % Activity: human NMUR1, maximum response at 1 μM compared to the human NMU-25 response at the same concentration
T2 construct: expressed in transfected cells; host or cells: FLP-In CHO cells and HEK-293 FLP-In cells (pcDNA5)
T2 sequence (Q9HB89 1-426): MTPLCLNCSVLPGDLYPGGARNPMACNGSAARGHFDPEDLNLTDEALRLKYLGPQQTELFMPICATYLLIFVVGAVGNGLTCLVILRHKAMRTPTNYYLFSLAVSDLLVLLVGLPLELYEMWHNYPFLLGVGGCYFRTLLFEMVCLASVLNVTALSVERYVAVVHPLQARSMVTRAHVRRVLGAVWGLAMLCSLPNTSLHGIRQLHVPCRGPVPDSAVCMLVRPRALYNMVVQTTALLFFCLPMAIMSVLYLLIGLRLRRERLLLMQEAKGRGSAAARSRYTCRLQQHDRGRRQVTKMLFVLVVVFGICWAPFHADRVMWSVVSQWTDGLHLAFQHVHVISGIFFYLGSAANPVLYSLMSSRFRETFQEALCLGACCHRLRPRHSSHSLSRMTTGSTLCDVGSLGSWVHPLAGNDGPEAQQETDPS
Description: as §1, §2, §3, §4, §5

[3] = system: mice; experiment: Acute subcutaneous administration of NMS analogs, daily food intake and body weight; type: in vivo; conditions: for food intake: lipidated analogs compared to NMS1, FIG. 10A; for body weight: lipidated analogs compared to NMS1, FIG. 10B
[4] = biological target: T3, mouse NMUR2 (Mus musculus, UniProt Q8BZ39); experiment: FLIPR calcium mobilization assay, mouse NMUR2 cell line; type: cell-based; conditions: for % Activity: mouse NMUR2, maximum response at 1 μM compared to the human NMU-25 response at the same concentration
T3 construct: expressed in transfected cells; host or cells: FLP-In CHO cells and HEK-293 FLP-In cells (pcDNA5)
T3 sequence (Q8BZ39 whole entry): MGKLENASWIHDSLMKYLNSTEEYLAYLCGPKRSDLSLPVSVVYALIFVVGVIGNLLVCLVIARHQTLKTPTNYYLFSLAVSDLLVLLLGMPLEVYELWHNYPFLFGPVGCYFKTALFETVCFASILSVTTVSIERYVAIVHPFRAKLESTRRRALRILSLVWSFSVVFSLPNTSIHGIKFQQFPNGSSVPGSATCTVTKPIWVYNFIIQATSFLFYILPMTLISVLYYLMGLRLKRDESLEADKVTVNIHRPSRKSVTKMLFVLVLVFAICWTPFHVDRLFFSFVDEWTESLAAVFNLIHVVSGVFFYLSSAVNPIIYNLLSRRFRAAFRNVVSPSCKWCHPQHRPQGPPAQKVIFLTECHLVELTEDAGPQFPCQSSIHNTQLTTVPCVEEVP
Description: as §1, §2, §3, §4, §5

[5] = biological target: T4, dog NMUR2 (Canis lupus familiaris, UniProt A0A8I3MN59); experiment: FLIPR calcium mobilization assay, dog NMUR2 cell line; type: cell-based; conditions: for % Activity: dog NMUR2, maximum response at 1 μM compared to the human NMU-25 response at the same concentration
T4 construct: expressed in transfected cells
T4 sequence (A0A8I3MN59 1-378): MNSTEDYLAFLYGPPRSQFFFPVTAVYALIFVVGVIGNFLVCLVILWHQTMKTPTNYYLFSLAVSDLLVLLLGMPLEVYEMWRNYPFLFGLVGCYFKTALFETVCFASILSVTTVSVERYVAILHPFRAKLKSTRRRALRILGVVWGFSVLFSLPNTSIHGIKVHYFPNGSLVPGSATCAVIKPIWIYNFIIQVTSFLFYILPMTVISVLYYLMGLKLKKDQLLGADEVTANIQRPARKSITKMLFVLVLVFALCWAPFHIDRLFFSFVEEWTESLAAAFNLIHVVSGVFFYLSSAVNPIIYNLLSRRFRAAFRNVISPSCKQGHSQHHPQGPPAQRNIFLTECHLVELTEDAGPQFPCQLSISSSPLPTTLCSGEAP
Description: as §1, §2, §3, §4, §5

[6] = biological target: T5, mouse NMUR1-ATG (Mus musculus, UniProt O55040); experiment: FLIPR calcium mobilization assay, mouse NMUR1-ATG cell line; type: cell-based; conditions: for % Activity: maximum response at 1 μM compared to the human NMU-25 response at the same concentration
T5 construct: expressed in transfected cells; host or cells: FLP-In CHO cells and HEK-293 FLP-In cells (pcDNA5)
T5 sequence (O55040 1-428): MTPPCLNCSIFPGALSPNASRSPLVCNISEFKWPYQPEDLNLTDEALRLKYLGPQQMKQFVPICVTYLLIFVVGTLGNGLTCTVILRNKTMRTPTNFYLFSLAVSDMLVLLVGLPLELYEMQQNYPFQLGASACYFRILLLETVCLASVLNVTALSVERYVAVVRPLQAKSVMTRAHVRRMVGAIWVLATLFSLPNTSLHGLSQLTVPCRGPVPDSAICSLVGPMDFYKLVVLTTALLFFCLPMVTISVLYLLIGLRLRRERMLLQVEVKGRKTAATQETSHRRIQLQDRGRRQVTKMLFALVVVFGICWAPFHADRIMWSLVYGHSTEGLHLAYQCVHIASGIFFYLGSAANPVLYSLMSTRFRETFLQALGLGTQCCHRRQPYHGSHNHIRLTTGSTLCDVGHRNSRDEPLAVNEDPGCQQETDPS
Description: as §1, §2, §3, §4, §5

[7] = system: dog NMUR1-ATG; experiment: FLIPR calcium mobilization assay, dog NMUR1-ATG cell line; type: cell-based; conditions: for EC50: FLIPR; for % Activity: maximum response at 1 μM compared to the human NMU-25 response at the same concentration
Description: as §1, §2, §3, §4, §5

| EC50 ([1]; human NMUR2, FLIPR) [nM] | EC50 ([2]; human NMUR1, FLIPR) [nM] | EC50 ([4]; mouse NMUR2, FLIPR) [nM] | EC50 ([5]; dog NMUR2, FLIPR) [nM] | EC50 ([6]; FLIPR) [nM] | SMILES | % Activity [1] [%] | % Activity [2] [%] | food intake [3] | body weight [3] | % Activity [4] [%] | % Activity [5] [%] | % Activity [6] [%] | EC50 [7] [nM] | % Activity [7] [%] |
| --- | --- | --- | --- | --- | --- | --- | --- | --- | --- | --- | --- | --- | --- | --- |
|  |  |  |  |  | CC[C@H](C)[C@H](NC(=O)[C@H](CSCC(=O)O[C@H]1CC[C@@]2(C)C(=CC[C@H]3[C@@H]4CC[C@H]([C@H](C)CCCC(C)C)[C@@]4(C)CC[C@@H]32)C1)NC(C)=O)C(=O)N[C@@H](CC(C)C)C(=O)N[C@@H](CCC(N)=O)C(=O)N[C@@H](CCCNC(=N)N)C(=O)NCC(=O)N[C@@H](CO)C(=O)NCC(=O)N[C@H](C(=O)N[C@@H](C)C(=O)N[C@@H](C)C(=O)N[C@H](C(=O)N[C@@H](CC(=O)O)C(=O)N[C@@H](Cc1ccccc1)C(=O)N[C@H](C(=O)N[C@@H](CCCCN)C(=O)N[C@@H](CCCCN)C(=O)N[C@@H](CC(=O)O)C(=O)N[C@@H](Cc1c[nH]cn1)C(=O)N[C@H](C(=O)N[C@@H](C)C(=O)N[C@H](C(=O)N[C@@H](Cc1c[nH]c2ccccc12)C(=O)NCC(=O)N[C@@H](CCCNC(=N)N)C(=O)N1CCC[C@H]1C(=O)N[C@@H](Cc1ccccc1)C(=O)N[C@@H](Cc1ccccc1)C(=O)N[C@@H](CC(C)C)C(=O)N[C@@H](Cc1ccccc1)C(=O)N[C@@H](CCCNC(=N)N)C(=O)N1CCC[C@H]1C(=O)N[C@@H](CCCNC(=N)N)C(=O)N[C@@H](CC(N)=O)C(N)=O)[C@@H](C)O)[C@@H](C)O)[C@@H](C)O)C(C)C)[C@@H](C)O [NMS2] (Ac-C(X1)ILQRGSGTAAVDFTKKDHTATWGRPFFLFRPRN-NH2) | 16 | 11 | significantly reduce | significantly reduce | 32 | 84 | 39 | ≥ 1000 | 46 |
| 214 | 248 | 40.1 | 18.8 | 12.5 | CCCCCCCCCCCCCCCC(=O)N[C@H](C(=O)N[C@@H](CC(C)C)C(=O)N[C@@H](CCC(N)=O)C(=O)N[C@@H](CCCNC(=N)N)C(=O)NCC(=O)N[C@@H](CO)C(=O)NCC(=O)N[C@H](C(=O)N[C@@H](C)C(=O)N[C@@H](C)C(=O)N[C@H](C(=O)N[C@@H](CC(=O)O)C(=O)N[C@@H](Cc1ccccc1)C(=O)N[C@H](C(=O)N[C@@H](CCCCN)C(=O)N[C@@H](CCCCN)C(=O)N[C@@H](CC(=O)O)C(=O)N[C@@H](Cc1c[nH]cn1)C(=O)N[C@H](C(=O)N[C@@H](C)C(=O)N[C@H](C(=O)N[C@@H](Cc1c[nH]c2ccccc12)C(=O)NCC(=O)N[C@@H](CCCNC(=N)N)C(=O)N1CCC[C@H]1C(=O)N[C@@H](Cc1ccccc1)C(=O)N[C@@H](Cc1ccccc1)C(=O)N[C@@H](CC(C)C)C(=O)N[C@@H](Cc1ccccc1)C(=O)N[C@@H](CCCNC(=N)N)C(=O)N1CCC[C@H]1C(=O)N[C@@H](CCCNC(=N)N)C(=O)N[C@@H](CC(N)=O)C(N)=O)[C@@H](C)O)[C@@H](C)O)[C@@H](C)O)C(C)C)[C@@H](C)O)[C@@H](C)CC [NMS5] (HELM PEPTIDE1{[CCCCCCCCCCCCCCCC(=O)[*:2]].I.L.Q.R.G.S.G.T.A.A.V.D.F.T.K.K.D.H.T.A.T.W.G.R.P.F.F.L.F.R.P.R.N.[am]}$$$$V2.0) | 93 | 85 | significantly reduce | significantly reduce | 78 | 100 | 83 | ≥ 1000 | 82 |
